Values belong to the compound of their own block, whether it stands above or below them.
Legend:
Histone deacetylase 8 = molecular target: T1, Histone deacetylase 8 (Homo sapiens, UniProt Q9BY41); experiment: Inhibition of N-terminal GST-tagged full length human HDAC8 expressed in baculovirus system using FTS as substrate preincubated for 10 mins followed by substrate addition and measured after 2 hrs by fluorescence based analysis
T1 sequence (Q9BY41 whole entry): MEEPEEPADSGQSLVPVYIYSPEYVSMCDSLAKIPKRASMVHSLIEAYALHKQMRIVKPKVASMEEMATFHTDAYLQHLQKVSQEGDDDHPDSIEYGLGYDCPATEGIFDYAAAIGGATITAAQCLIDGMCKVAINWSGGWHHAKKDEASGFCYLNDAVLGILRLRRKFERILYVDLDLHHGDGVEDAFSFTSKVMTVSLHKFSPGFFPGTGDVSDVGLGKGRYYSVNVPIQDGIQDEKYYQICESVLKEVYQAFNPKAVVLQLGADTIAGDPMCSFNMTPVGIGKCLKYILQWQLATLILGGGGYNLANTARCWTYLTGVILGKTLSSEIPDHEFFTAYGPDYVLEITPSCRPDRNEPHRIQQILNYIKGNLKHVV

Histone deacetylase 2 [1] = molecular target: T2, Histone deacetylase 2 (Homo sapiens, UniProt Q92769); experiment: Inhibition of N-terminal GST-tagged full length human HDAC2 expressed in baculovirus system using FTS as substrate preincubated for 10 mins followed by substrate addition and measured after 2 hrs by fluorescence based analysis
T2 sequence (Q92769 whole entry): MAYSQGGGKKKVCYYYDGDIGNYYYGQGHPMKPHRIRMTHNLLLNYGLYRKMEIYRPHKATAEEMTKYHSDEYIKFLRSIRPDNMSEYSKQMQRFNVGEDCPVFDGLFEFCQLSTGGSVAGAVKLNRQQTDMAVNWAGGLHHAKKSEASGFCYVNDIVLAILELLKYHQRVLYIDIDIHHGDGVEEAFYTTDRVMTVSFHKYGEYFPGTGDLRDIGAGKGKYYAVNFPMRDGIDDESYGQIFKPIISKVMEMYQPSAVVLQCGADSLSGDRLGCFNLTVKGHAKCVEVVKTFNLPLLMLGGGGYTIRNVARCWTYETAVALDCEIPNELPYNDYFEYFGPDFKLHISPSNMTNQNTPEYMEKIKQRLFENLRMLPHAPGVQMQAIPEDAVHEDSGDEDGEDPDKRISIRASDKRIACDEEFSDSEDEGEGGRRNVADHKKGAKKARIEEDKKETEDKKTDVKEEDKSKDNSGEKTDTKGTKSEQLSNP

Histone deacetylase 1 [2] = molecular target: T3, Histone deacetylase 1 (Homo sapiens, UniProt Q13547); experiment: Inhibition of N-terminal GST-tagged full length human HDAC1 expressed in baculovirus system using FTS as substrate preincubated for 10 mins followed by substrate addition and measured after 2 hrs by fluorescence based analysis
T3 sequence (Q13547 whole entry): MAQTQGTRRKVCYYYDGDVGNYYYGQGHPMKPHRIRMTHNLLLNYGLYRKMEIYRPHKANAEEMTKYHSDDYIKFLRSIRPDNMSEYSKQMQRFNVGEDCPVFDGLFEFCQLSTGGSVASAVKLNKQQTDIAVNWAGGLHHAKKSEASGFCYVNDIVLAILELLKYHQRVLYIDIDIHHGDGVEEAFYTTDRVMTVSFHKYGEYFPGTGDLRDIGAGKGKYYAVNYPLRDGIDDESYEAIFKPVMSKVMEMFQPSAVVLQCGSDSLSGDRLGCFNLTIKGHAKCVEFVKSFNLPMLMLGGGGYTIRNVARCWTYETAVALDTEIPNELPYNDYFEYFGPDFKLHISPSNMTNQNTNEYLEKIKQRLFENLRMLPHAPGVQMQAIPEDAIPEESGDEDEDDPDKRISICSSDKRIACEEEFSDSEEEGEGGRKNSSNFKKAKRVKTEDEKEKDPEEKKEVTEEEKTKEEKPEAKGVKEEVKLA

Histone deacetylase 3 [3] = molecular target: T4, Histone deacetylase 3 (Homo sapiens, UniProt O15379); experiment: Inhibition of N-terminal GST-tagged full length human HDAC3 expressed in baculovirus system using FTS as substrate preincubated for 10 mins followed by substrate addition and measured after 2 hrs by fluorescence based analysis
T4 sequence (O15379 whole entry): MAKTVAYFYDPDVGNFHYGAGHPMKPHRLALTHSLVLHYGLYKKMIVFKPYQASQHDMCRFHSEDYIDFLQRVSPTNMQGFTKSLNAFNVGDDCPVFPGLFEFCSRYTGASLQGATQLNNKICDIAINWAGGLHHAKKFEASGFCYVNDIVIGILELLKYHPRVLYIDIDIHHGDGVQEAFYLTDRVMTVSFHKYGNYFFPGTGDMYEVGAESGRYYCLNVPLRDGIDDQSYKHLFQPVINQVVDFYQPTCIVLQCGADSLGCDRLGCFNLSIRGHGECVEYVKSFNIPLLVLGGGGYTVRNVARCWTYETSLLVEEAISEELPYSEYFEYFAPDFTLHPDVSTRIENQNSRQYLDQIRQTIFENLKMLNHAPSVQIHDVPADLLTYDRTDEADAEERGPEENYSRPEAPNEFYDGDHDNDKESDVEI

[4] = molecular target: T5, Protein deacetylase HDAC6 (Homo sapiens, UniProt Q9UBN7); experiment: Inhibition of N-terminal GST-tagged full length human HDAC6 expressed in baculovirus system using FTS as substrate preincubated for 10 mins followed by substrate addition and measured after 2 hrs by fluorescence based analysis
T5 sequence (Q9UBN7 whole entry): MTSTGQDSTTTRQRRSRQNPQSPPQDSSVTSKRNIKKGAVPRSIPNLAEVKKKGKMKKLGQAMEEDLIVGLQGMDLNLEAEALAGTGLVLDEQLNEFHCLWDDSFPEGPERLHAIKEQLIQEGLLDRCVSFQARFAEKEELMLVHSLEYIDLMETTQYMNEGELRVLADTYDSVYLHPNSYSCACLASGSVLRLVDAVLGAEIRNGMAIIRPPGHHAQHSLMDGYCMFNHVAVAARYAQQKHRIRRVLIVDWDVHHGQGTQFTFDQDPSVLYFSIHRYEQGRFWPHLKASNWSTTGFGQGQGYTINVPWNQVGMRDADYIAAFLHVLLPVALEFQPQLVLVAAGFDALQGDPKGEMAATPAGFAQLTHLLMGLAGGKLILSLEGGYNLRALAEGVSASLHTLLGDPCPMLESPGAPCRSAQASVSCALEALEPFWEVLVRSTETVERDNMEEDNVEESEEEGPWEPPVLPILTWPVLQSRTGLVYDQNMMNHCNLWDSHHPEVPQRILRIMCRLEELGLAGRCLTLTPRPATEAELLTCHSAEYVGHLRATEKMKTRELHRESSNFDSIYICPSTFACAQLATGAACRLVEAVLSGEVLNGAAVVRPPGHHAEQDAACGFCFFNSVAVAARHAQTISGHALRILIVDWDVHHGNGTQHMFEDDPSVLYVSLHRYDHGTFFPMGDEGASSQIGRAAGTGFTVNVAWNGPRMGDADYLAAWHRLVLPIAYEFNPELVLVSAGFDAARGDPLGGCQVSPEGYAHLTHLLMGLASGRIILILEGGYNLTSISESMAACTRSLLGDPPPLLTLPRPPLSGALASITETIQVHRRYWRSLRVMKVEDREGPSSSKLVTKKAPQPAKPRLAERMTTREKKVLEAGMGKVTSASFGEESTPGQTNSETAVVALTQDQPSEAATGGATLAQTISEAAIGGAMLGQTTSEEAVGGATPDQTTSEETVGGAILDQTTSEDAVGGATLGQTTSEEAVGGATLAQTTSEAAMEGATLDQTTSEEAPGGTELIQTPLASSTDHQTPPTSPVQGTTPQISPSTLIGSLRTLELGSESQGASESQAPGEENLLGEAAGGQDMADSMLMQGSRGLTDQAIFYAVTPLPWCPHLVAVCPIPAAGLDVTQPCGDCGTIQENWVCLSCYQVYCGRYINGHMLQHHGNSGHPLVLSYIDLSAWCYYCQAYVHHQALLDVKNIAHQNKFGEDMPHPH

Histone deacetylase 2 [5] = molecular target: T2, Histone deacetylase 2; experiment: Inhibition of human full length recombinant HDAC2 expressed in baculovirus infected Sf9 cells using RHKKAc as substrate preincubated for 10 mins followed by substrate addition and measured after 2 hrs by fluorescence based analysis
Histone deacetylase 1 [6] = molecular target: T3, Histone deacetylase 1; experiment: Inhibition of human recombinant HDAC1 using ZMAL (Z-(Ac)Lys-AMC) as fluorogenic substrate preincubated for 5 mins followed by substrate addition and measured after 1 hr by fluorescence based analysis
Histone deacetylase 3 [7] = molecular target: T4, Histone deacetylase 3; experiment: Inhibition of recombinant full length human HDAC3 expressed in insect Sf9 cells
[8] = molecular target: T6, Polyamine deacetylase HDAC10 (Homo sapiens, UniProt Q969S8); experiment: Inhibition of HDAC10 (unknown origin)
T6 sequence (Q969S8 whole entry): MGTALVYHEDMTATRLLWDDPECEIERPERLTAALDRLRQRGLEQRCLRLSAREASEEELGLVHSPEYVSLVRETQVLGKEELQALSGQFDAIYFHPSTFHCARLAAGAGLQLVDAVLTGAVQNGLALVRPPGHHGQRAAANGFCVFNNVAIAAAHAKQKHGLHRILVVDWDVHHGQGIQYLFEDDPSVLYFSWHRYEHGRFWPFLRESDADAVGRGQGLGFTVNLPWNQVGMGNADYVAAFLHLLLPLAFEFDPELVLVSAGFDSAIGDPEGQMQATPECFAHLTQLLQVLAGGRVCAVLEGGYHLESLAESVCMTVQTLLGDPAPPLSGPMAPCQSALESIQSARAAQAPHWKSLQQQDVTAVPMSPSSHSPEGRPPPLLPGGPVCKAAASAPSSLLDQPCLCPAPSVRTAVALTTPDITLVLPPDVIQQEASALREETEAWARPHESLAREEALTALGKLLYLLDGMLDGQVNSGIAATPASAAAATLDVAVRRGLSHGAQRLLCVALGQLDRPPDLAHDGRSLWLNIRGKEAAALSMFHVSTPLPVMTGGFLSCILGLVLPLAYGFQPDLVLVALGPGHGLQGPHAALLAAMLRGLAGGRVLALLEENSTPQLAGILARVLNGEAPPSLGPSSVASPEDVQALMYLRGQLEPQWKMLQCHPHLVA

Histone deacetylase 11 = molecular target: T7, Histone deacetylase 11 (Homo sapiens, UniProt Q96DB2); experiment: Inhibition of HDAC11 (unknown origin)
T7 sequence (Q96DB2 whole entry): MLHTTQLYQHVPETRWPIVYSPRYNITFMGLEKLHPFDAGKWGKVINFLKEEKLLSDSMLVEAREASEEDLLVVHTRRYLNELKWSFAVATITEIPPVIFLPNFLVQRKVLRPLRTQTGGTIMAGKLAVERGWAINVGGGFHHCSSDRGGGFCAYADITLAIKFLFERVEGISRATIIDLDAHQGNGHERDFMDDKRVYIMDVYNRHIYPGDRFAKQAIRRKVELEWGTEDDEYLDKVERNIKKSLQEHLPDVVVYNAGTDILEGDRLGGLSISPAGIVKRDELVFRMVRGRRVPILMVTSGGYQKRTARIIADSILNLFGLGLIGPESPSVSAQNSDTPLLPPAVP

IC50 (Histone deacetylase 8): 1430 nM | IC50 (Histone deacetylase 2 [1]): 15.4 nM | IC50 (Histone deacetylase 1 [2]): 8.35 nM | IC50 (Histone deacetylase 3 [3]): 51.6 nM | IC50 [4]: 0.4 nM
SMILES: O=C(CCCCCCC(=O)N/N=C/c1ccc(N(c2ccccc2)c2ccccc2)cc1)NO

IC50 (Histone deacetylase 2 [5]): 2.4 nM | IC50 (Histone deacetylase 1 [6]): 1.2 nM | IC50 (Histone deacetylase 3 [7]): 2 nM
SMILES: CC(C)[C@H](N)C(=O)SCC/C=C/[C@@H]1CC(=O)NCc2nc(cs2)C(=O)NC(C)(C)C(=O)N[C@@H](C(C)C)C(=O)O1 [BOCODEPSIN BESYLATE]

IC50 [8]: 78 nM | IC50 (Histone deacetylase 11): 432 nM
SMILES: Nc1cc(F)ccc1NC(=O)c1ccc(CNC(=O)/C=C/c2cccnc2)cc1 [TUCIDINOSTAT]
